Values quoted from earlier work, collected in patent US20190320698A1, “HYDROLYZED PECTIN AND USEOF THE SAME” (International Flavors & Fragrances Inc., priority 2018, published 2019).

Conditions: approximate values

| Water Solubility (g/L, approx.) | Compound |
| --- | --- |
| ~90 g/L | CCOC(C)=O [ethyl acetate] |
| Insoluble | CSC [dimethyl sulfide] |
| ~14 g/L | CCOC(=O)CC [ethyl propionate] |
| ~6 g/L | CCCC(=O)OCC [ethyl butyrate] |

| Compound | Water Solubility (g/L, approx.) |
| --- | --- |
| CCCC(=O)OC [methyl butyrate] | ~15 g/L |
